Assay results as given in ChEMBL document CHEMBL6074628, “Rational design, synthesis and pharmacological characterization of novel aminopeptidase A inhibitors” (Bioorg Med Chem Lett, 2024).
Values after ≈ are worked out from the molar mass of the structure shown. Each block holds one compound with its values, some of them ahead of it.

Columns and labels:
Glutamyl aminopeptidase = biological target: T1, Glutamyl aminopeptidase (Mus musculus, UniProt P16406); experiment: Inhibition of recombinant mouse aminopeptidase A activity
T1 sequence (P16406 whole entry): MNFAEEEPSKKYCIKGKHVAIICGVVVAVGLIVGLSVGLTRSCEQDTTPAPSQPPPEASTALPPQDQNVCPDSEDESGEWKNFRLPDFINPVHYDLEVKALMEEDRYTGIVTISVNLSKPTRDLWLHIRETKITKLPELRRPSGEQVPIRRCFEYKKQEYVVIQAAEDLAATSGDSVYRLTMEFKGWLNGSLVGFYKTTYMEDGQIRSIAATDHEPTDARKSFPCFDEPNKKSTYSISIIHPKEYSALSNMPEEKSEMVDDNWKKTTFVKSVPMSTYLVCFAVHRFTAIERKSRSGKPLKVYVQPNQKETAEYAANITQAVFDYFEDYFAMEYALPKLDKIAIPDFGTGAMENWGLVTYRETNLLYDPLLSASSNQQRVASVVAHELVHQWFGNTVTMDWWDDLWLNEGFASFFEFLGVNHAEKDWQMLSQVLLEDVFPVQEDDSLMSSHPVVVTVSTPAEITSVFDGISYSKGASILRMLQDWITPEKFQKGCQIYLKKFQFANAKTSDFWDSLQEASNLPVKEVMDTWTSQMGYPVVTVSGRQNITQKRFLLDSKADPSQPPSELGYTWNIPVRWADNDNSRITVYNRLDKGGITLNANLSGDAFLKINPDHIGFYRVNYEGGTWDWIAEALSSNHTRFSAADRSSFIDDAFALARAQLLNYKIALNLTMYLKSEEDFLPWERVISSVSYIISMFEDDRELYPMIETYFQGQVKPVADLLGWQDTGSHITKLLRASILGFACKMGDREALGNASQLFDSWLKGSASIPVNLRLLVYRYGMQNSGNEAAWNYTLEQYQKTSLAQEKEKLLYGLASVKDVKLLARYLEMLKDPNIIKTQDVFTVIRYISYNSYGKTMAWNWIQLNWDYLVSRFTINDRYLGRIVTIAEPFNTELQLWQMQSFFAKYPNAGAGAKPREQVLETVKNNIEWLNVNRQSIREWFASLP

[1] = Inhibition of APA (unknown origin)
Aminopeptidase N = Aminopeptidase N (Homo sapiens, UniProt P15144); experiment: Inhibition of APN (unknown origin)
Chain of Aminopeptidase N (P15144 whole entry): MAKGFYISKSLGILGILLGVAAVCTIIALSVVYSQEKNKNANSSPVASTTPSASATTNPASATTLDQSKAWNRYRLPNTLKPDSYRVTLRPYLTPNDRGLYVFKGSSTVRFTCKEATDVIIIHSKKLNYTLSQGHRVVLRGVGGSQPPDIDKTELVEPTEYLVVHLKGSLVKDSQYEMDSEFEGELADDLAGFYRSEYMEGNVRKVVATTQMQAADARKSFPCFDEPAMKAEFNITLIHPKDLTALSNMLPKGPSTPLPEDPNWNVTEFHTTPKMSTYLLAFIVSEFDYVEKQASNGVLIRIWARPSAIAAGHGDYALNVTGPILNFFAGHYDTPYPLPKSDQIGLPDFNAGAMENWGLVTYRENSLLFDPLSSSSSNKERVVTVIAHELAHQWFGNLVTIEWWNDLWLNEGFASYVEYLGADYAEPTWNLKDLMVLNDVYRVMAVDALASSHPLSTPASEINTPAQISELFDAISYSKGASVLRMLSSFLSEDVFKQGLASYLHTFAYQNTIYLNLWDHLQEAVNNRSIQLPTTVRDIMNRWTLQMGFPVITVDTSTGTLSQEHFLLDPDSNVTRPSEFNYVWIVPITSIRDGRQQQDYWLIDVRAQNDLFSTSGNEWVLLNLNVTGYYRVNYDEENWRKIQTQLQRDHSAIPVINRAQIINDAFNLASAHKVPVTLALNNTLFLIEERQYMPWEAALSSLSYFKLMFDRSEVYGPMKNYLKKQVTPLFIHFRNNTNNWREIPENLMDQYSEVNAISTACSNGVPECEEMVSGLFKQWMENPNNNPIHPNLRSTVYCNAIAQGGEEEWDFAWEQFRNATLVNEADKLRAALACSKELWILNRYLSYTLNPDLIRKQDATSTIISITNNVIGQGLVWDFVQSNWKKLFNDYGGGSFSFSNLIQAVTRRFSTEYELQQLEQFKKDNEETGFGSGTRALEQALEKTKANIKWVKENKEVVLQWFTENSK

[2] = Inhibition of rabbit kidney aminopeptidase A using GluNA as substrate incubated for 1 hrs by absorbance based assay
Cytochrome P450 2D6 = Cytochrome P450 2D6 (Homo sapiens, UniProt P10635); experiment: Inhibition of CYP2D6 (unknown origin)
Chain of Cytochrome P450 2D6 (P10635 whole entry): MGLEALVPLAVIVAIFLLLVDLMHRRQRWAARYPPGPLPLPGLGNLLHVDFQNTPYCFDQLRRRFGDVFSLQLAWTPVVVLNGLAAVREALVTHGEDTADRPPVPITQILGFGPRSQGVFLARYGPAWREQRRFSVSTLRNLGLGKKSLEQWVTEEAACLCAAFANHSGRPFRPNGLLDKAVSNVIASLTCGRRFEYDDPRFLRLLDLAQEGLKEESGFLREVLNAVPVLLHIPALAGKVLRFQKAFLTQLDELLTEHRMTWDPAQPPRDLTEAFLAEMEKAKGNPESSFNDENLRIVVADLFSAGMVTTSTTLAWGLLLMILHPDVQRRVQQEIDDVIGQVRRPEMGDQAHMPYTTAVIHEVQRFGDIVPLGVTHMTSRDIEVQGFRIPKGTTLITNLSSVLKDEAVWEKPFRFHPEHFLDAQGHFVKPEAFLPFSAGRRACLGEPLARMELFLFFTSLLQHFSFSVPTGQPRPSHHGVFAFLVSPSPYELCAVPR

in vivo [3] = conditions: mouse, po, 20 mg/kg
Description: AUC (0 to t) in mouse at 20 mg/kg, po

[4] = Hepatic extraction ratio in Sprague-Dawley rat at 2 mg/kg, iv; conditions: in vivo
in vivo [5] = conditions: Sprague-Dawley, rat, iv, 2 mg/kg
Description: Cmax in Sprague-Dawley rat at 2 mg/kg, iv

Cytochrome P450 2B6 = biological target: T2, Cytochrome P450 2B6 (Homo sapiens, UniProt P20813); experiment: Inhibition of CYP2B6 (unknown origin)
T2 sequence (P20813 whole entry): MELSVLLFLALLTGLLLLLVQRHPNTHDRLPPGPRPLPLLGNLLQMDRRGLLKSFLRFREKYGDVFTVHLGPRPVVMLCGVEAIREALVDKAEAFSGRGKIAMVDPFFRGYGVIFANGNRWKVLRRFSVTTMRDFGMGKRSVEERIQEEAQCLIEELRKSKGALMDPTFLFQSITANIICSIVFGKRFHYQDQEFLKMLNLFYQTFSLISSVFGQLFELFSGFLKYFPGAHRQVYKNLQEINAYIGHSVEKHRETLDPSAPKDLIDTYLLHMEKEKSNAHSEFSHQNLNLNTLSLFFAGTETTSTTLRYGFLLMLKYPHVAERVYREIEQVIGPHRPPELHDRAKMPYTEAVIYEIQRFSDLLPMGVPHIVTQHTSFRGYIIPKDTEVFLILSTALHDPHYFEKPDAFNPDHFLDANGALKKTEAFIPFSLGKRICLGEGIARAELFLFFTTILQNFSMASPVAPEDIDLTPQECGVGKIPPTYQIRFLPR

Cytochrome P450 2C9 = Cytochrome P450 2C9 (Homo sapiens, UniProt P11712); experiment: Inhibition of CYP2C9 (unknown origin)
Chain of Cytochrome P450 2C9 (P11712 whole entry): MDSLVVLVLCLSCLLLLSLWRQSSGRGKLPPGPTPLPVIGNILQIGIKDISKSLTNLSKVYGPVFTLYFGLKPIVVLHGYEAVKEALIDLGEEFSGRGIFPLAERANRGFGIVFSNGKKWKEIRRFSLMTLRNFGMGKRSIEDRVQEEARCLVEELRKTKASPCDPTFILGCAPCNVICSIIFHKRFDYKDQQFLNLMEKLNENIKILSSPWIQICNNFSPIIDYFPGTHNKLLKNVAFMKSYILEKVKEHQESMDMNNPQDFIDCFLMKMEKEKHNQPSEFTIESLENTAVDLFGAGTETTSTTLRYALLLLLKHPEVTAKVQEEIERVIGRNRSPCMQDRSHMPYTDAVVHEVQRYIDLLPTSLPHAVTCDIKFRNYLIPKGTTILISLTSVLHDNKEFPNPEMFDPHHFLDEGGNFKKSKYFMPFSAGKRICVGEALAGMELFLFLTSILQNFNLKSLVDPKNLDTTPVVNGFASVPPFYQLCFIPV

Cytochrome P450 3A4 = Cytochrome P450 3A4 (Homo sapiens, UniProt P08684); experiment: Inhibition of CYP3A4 (unknown origin)
Chain of Cytochrome P450 3A4 (P08684 whole entry): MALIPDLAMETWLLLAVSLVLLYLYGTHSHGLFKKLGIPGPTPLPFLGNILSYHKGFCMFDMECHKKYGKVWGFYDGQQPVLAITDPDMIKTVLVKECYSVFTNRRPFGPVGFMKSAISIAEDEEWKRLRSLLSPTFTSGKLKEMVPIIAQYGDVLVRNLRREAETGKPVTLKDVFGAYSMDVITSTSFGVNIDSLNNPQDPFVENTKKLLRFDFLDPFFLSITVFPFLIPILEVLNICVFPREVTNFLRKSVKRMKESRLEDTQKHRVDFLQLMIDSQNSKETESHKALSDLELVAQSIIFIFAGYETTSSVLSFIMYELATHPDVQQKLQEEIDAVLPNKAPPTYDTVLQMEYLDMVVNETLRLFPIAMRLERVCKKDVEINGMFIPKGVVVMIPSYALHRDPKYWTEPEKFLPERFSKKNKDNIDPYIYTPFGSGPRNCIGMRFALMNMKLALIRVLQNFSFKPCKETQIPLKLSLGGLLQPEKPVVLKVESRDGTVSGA

in vivo [6] = conditions: mouse
[7] = Stability in human hepatocyte assessed as parent compound remaining measured after 1 hrs; conditions: hepatocytes
[8] = Solubility of compound in phosphate buffer at pH 7.4
[9] = Drug concentration in Sprague-Dawley rat brain at 2 mg/kg, iv measured after 60 mins
[10] = Drug concentration in Sprague-Dawley rat cerebrospinal fluid at 2 mg/kg, iv measured after 60 mins
[11] = Apparent permeability in human Caco-2 cells
[12] = Half-life in Sprague-Dawley rat at 2 mg/kg, iv; conditions: in vivo
[13] = Drug concentration in Sprague-Dawley rat brain at 2 mg/kg, iv measured after 5 mins
[14] = Stability in rat hepatocyte assessed as parent compound remaining measured after 1 hrs; conditions: hepatocytes
Cytochrome P450 2C19 = Cytochrome P450 2C19 (Homo sapiens, UniProt P33261); experiment: Inhibition of CYP2C19 (unknown origin)
Chain of Cytochrome P450 2C19 (P33261 whole entry): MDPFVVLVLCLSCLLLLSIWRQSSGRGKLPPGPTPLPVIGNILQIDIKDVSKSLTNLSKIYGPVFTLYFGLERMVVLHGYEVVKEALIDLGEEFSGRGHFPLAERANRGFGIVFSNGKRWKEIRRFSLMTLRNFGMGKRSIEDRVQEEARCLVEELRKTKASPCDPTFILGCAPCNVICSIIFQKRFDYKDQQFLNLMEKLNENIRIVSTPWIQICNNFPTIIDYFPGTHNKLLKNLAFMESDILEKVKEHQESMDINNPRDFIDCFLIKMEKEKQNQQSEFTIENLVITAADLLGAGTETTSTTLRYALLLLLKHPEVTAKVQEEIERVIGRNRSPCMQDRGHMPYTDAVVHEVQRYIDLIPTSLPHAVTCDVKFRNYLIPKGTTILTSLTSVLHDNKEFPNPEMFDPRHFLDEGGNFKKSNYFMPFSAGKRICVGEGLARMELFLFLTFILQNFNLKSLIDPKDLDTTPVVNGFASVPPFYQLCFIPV

Cytochrome P450 1A2 = biological target: T3, Cytochrome P450 1A2 (Homo sapiens, UniProt P05177); experiment: Inhibition of CYP1A2 (unknown origin)
T3 sequence (P05177 whole entry): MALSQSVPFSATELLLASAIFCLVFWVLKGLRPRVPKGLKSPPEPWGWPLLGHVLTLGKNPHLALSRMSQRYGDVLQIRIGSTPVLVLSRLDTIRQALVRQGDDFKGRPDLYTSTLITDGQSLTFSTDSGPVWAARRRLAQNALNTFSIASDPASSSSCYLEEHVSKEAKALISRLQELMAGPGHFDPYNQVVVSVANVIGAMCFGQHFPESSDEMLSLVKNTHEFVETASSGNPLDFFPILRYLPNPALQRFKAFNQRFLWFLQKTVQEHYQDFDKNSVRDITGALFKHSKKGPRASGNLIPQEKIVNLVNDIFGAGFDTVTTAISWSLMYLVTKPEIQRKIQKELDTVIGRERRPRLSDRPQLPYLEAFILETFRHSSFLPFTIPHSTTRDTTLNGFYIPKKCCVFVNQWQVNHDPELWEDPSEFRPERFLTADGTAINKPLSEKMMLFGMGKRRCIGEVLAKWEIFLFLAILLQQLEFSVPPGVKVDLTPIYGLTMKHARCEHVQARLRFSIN

in vivo [15] = conditions: mouse, iv, 2 mg/kg
Description: AUC (0 to t) in mouse at 2 mg/kg, iv

in vivo [16] = conditions: Sprague-Dawley, rat, iv, 2 mg/kg; remark: listed apart in the source
Description: Renal clearance in Sprague-Dawley rat at 2 mg/kg, iv

[17] = Drug concentration in Sprague-Dawley rat cerebrospinal fluid at 2 mg/kg, iv measured after 5 mins

IC50 (Glutamyl aminopeptidase): 21 nM
Compound: NC(CCC(=O)O)P(=O)(O)CCc1ccc2ccccc2c1 (centres undefined)

IC50 (Glutamyl aminopeptidase): 310 nM
Compound: NC(CCS(=O)(=O)O)P(=O)(O)CCc1ccccc1 (racemic)

IC50 (Glutamyl aminopeptidase): 26 nM
Compound: NC(CCC(=O)O)P(=O)(O)CCc1cccc(Cl)c1Cl (centres undefined)

IC50 (Glutamyl aminopeptidase): 23 nM
Compound: Cc1ccc(CCP(=O)(O)C(N)CCC(=O)O)cc1 (centres undefined)

IC50 (Glutamyl aminopeptidase): 7 nM
Compound: NC(CCC(=O)O)P(=O)(O)CCc1cccc2ccccc12 (centres undefined)

IC50 (Glutamyl aminopeptidase): 27 nM
Compound: Cc1cccc(CCP(=O)(O)C(N)CCC(=O)O)c1 (centres undefined)

IC50 (Glutamyl aminopeptidase): 39 nM
Compound: NC(CCC(=O)O)P(=O)(O)Cc1ccccc1 (racemic)

IC50 (Glutamyl aminopeptidase): 18 nM
Compound: Cc1ccccc1CCP(=O)(O)C(N)CCC(=O)O (centres undefined)

IC50 (Glutamyl aminopeptidase): 5400 nM
Compound: NC(CCP(=O)(O)O)P(=O)(O)CCc1ccccc1 (racemic)

IC50 (Glutamyl aminopeptidase): 42 nM
Compound: NC(CCC(=O)O)P(=O)(O)CCc1ccccc1-c1ccccc1 (centres undefined)

IC50 (Glutamyl aminopeptidase): 24 nM
Compound: COc1ccc(CCP(=O)(O)C(N)CCC(=O)O)cc1 (centres undefined)

IC50 (Glutamyl aminopeptidase): 9 nM
Compound: COc1ccccc1CCP(=O)(O)C(N)CCC(=O)O (centres undefined)

IC50 (Glutamyl aminopeptidase): 30 nM
Compound: Cn1cc(CCP(=O)(O)C(N)CCC(=O)O)c2ccccc21 (centres undefined)

IC50 (Glutamyl aminopeptidase): 26 nM
Compound: NC(CCC(=O)O)P(=O)(O)CCc1ccccc1OC(F)(F)F (centres undefined)

IC50 (Glutamyl aminopeptidase): 29 nM
Compound: NC(CCC(=O)O)P(=O)(O)CCc1ccccc1 (racemic)

IC50 (Glutamyl aminopeptidase): 61 nM
Compound: NC(CCC(=O)O)P(=O)(O)CCc1cccc(Cl)c1 (centres undefined)

IC50 (Glutamyl aminopeptidase): 9 nM
Compound: NC(CCC(=O)O)P(=O)(O)CCc1ccccc1OC1CCCC1 (centres undefined)

IC50 (Glutamyl aminopeptidase): 1 nM
Compound: NC(CCC(=O)O)P(=O)(O)CCc1ccccc1OC1CCCCC1 (centres undefined)

Ki [1]: 30 nM | Ki (Aminopeptidase N): > 10 µM
Compound: N[C@@H](CCS(=O)(=O)O)[C@@H](S)CCc1ccccc1

IC50 (Glutamyl aminopeptidase): 21 nM
Compound: NC(CCC(=O)O)P(=O)(O)CCc1ccccc1Cl (centres undefined)

IC50 (Glutamyl aminopeptidase): 28 nM
Compound: COc1cccc(CCP(=O)(O)C(N)CCC(=O)O)c1 (centres undefined)

IC50 (Glutamyl aminopeptidase): 54 nM
Compound: NC(CCC(=O)O)P(=O)(O)CCCc1ccccc1 (racemic)

Ki [2]: 140 nM
Compound: N[C@H](CS)CCC(=O)O

IC50 (Glutamyl aminopeptidase): 54 nM
Compound: COc1c(Cl)cccc1CCP(=O)(O)C(N)CCC(=O)O (centres undefined)

IC50 (Cytochrome P450 2D6): > 25 µM | AUC(0-t) (in vivo [3]): 37.6 ng·h/mL | hepatic extraction ratio [4]: ~0.45 | Cmax (in vivo [5]): 4920 ng/mL | IC50 (Cytochrome P450 2B6): > 25 µM | IC50 (Cytochrome P450 2C9): > 25 µM | IC50 (Cytochrome P450 3A4): > 25 µM | IC50 (Glutamyl aminopeptidase): 4 nM | bioavailability (in vivo [6]): 4.1% | remaining at 1 h [7]: 99% | solubility [8]: 165 µM (≈ 49.7 µg/mL) | concentration at 1 h [9]: 15.6 ng/g | concentration at 1 h [10]: 115 ng/mL | Papp [11]: 0.5 ×10⁻⁶ cm/s | half-life [12]: ~30 min | concentration at 5 min [13]: 50.2 ng/g | remaining at 1 h [14]: 93% | IC50 (Cytochrome P450 2C19): > 25 µM | IC50 (Cytochrome P450 1A2): > 25 µM | AUC(0-t) (in vivo [15]): 919 ng·h/mL | CL renal (in vivo [16]): 0.6 mL/min | concentration at 5 min [17]: 281 ng/mL | IC50 (Aminopeptidase N): > 20 µM
Compound: COc1ccccc1CCP(=O)(O)[C@@H](N)CCC(=O)O

IC50 (Glutamyl aminopeptidase): 660 nM
Compound: N[C@H](CCC(=O)O)P(=O)(O)CCc1ccccc1

IC50 (Glutamyl aminopeptidase): 10 nM
Compound: NC(CCC(=O)O)P(=O)(O)CCc1ccccc1Oc1ccccc1 (centres undefined)

IC50 (Glutamyl aminopeptidase): 420 nM
Compound: NC(CCC(=O)O)P(=O)(O)CCn1ncc2ccccc21 (centres undefined)

IC50 (Glutamyl aminopeptidase): 10 nM
Compound: N[C@@H](CCC(=O)O)P(=O)(O)CCc1ccccc1

IC50 (Glutamyl aminopeptidase): 41 nM
Compound: NC(CCC(=O)O)P(=O)(O)CCC1CCCCC1 (centres undefined)

IC50 (Glutamyl aminopeptidase): 930 nM
Compound: NC(CCCC(=O)O)P(=O)(O)CCc1ccccc1 (racemic)
